Reference: PMC8391127, “Triterpenoid–PEG Ribbons Targeting Selectivity in Pharmacological Effects” (Biomedicines, 2021)
Like-named read-outs stand apart in the source and are kept apart here. Marks after values point to notes of the source that are not given here.

Key:
[1] = Ability to form supramolecular gel; type: physicochemical; conditions: 1% w/v in solvent, ultrasound 30 min, heated to boiling, cooled to r.t. 24 h
Experimental: The solutions of the studied compounds 8a, 12a, 8b, 12b, 4c, 6c, 6d, and 8d (1%, w/v) in the appropriate solvent were mixed with ultrasound for 30 min, then heated to the boiling points of the used solvents, and then allowed to cool down to the r.t. for 24 h. An example of the resulting gels that were produced from 8a, 4c, 6c, and 6d is shown in the Supplementary Material, Figure S1.

Staphylococcus aureus = assay: Antimicrobial screening, resazurine test; type: cell-based; conditions: Staphylococcus aureus, read-out: Inhibition of the microorganism
Experimental: (§1) The resazurine test was used to evaluate this activity.
(§2) The cell inoculum was made in Mueller–Hinton broth (10 mL). Colonies of cells were inoculated from the solid medium that was cultivated for 24 h under optimum conditions. A part of the inoculum was diluted to get suspension with an optical density 0.6 to 0.9 McF. An aliquot amount (1 mL) was taken and diluted with additional volume of the medium (19 mL). The stored solutions of the tested compounds were made at a concentration c = 200 µg.mL^−1. The stored suspensions of the cells, MHB medium, solutions of the antibiotics specific for the given bacteria (vancomycin for S. aureus and E. faecalis, kanamycin for E. coli and P. aeruginosa, and tetracycline for B. cereus), and the solutions of the compounds were pipetted into the microtitration plates. Subsequently, a concentration sequence of the tested compounds was made (c = 100, 50, and 25 µg.mL^−1). The content of the microtitration plates was cultivated for 24 h under optimum conditions for the given bacteria. A solution of resazurine was made, based on a dilution of its stored solution (c = 0.15 mg.mL^−1; 2 mL) into the MHB medium (18 mL). Then, it was pipetted into the microtitration plates that were cultivated for an additional 1 h. Finally, fluorescence measurement (excitation at 560 nm, emission at 590 nm) was made, and the inhibition of the bacterium was determined.
(§3) 2. Antimicrobial screening tests
(§4) Antimicrobial activity of the target molecular ribbons 8a, 12a, 8b, 12b, 4c, 6c, 6d and 8d, and […]
(§5) aeruginosa, Staphylococcus aureus and Enterococcus faecalis. The resazurine test was used to […]
(§6) ribbons which have been achieved in this investigation.
(§7) Table S1. Antimicrobial activity, inhibition of the microorganism [%]
(§8) Comp. Staphylococcus aureus Comp. Escherichia coli […]
(§9) µg·mL-1 µg·mL-1 µg·mL-1 µg·mL-1 µg·mL-1 µg·mL-1
(§10) Comp. Bacillus cereus Comp. Pseudomonas aeruginosa

Escherichia coli = assay: Antimicrobial screening, resazurine test; type: cell-based; conditions: Escherichia coli, read-out: Inhibition of the microorganism
Experimental: as §1, §2, §3, §4, §5, §6, §7, §8, §9, §10

Bacillus cereus = assay: Antimicrobial screening, resazurine test; type: cell-based; conditions: for inhibition at 25 µg/mL / inhibition at 50 µg/mL / inhibition at 100 µg/mL: Bacillus cereus
Experimental: as §1, §2, §3, §4, §5, §6, §7, §8, §9, §10

Pseudomonas aeruginosa = assay: Antimicrobial screening, resazurine test; type: cell-based
Experimental: as §1, §2, §3, §4, §5, §6, §7, §8, §9, §10

Enterococcus faecalis = assay: Antimicrobial screening, resazurine test; type: cell-based; conditions: for inhibition at 25 µg/mL / inhibition at 50 µg/mL / inhibition at 100 µg/mL: Enterococcus faecalis, read-out: Inhibition of the microorganism
Experimental: as §1, §2, §3, §4, §5, §6, §7, §8, §9, §10

[2] = Self-assembly by UV-VIS spectrometry in methanol/water mixtures; type: physicochemical; conditions: 0-140 h
Experimental: The self-assembly of the selected compounds 8a, 12a, 8b, 12b, 4c, 6c, 6d, and 8d was measured using UV absorption in methanol/water mixtures with a constant concentration of the studied compound for 7 days in one-hour intervals on the first day, and in 24 h intervals all following days. The stock solutions of the studied compounds were prepared at a concentration of 1 mg·mL^−1 in water. Then, a series of methanol/water mixtures were prepared starting from a methanol/water ratio 100/0 down to 0/100 in 20% steps. The stock solutions of the studied compounds (0.15 mL) were added separately to each vial containing methanol/water mixtures (3 mL), and the UV spectra were recorded in the wavelength range of 200–400 nm. […] For the compounds 8a, 12a, 12b and 6d, the details are presented in the Supplementary Material; see Figure S2.
Supramolecular self-assembly was studied on the basis of the UV-VIS spectra of the compounds in several methanol/water mixtures stepwise during the time interval 0-140 h. Here we show compounds 8a, 12a, 12b and 6d as examples, with which the irregularities in the UV-VIS spectra were either well pronounced (8a and 12a; Figure S2), or no substantial irregularity was detected (12b and 6d).
Figure S2. UV-VIS spectra of 8a (top) and 12a (bottom) measured in the interval 0-140 h.
During that time interval a new maximum appeared at 300 nm wavelength, and the shape of the curves is different than in any of the other intervals of measurement. […]

[3] = B. cereus, c = 25 µg·mL-1, read-out: Inhibition of the microorganism
[4] = B. cereus, c = 50 µg·mL-1, read-out: Inhibition of the microorganism
[5] = B. cereus, c = 100 µg·mL-1, read-out: Inhibition of the microorganism
[6] = P. aeruginosa, c = 25 µg·mL-1, read-out: Inhibition of the microorganism
[7] = P. aeruginosa, c = 50 µg·mL-1, read-out: Inhibition of the microorganism
[8] = P. aeruginosa, c = 100 µg·mL-1, read-out: Inhibition of the microorganism
[9] = read-out: Inhibition of the microorganism

Compound | inhibition at 25 µg/mL (Staphylococcus aureus; S. aureus, c = 25 µg·mL-1) | inhibition at 50 µg/mL (Staphylococcus aureus; S. aureus, c = 50 µg·mL-1) | inhibition at 100 µg/mL (Staphylococcus aureus; S. aureus, c = 100 µg·mL-1) | inhibition at 25 µg/mL (Escherichia coli; E. coli, c = 25 µg·mL-1) | inhibition at 50 µg/mL (Escherichia coli; E. coli, c = 50 µg·mL-1) | inhibition at 100 µg/mL (Escherichia coli; E. coli, c = 100 µg·mL-1) | inhibition at 25 µg/mL (Bacillus cereus; [3]) | inhibition at 50 µg/mL (Bacillus cereus; [4]) | inhibition at 100 µg/mL (Bacillus cereus; [5]) | inhibition at 25 µg/mL (Pseudomonas aeruginosa; [6]) | inhibition at 50 µg/mL (Pseudomonas aeruginosa; [7]) | inhibition at 100 µg/mL (Pseudomonas aeruginosa; [8]) | inhibition at 25 µg/mL (Enterococcus faecalis; E. faecalis, c = 25 µg·mL-1) | inhibition at 50 µg/mL (Enterococcus faecalis; E. faecalis, c = 50 µg·mL-1) | inhibition at 100 µg/mL (Enterococcus faecalis; E. faecalis, c = 100 µg·mL-1) | further results
CC1(C)C=C2[C@H]3CC[C@@H]4[C@@]5(C)CCC(=O)C(C)(C)[C@@H]5CC[C@@]4(C)[C@]3(C)CC[C@@]2(C(=O)NCCOCCOCCOCCn2cc(COC(=O)[C@]34CCC(C)(C)C=C3[C@H]3CC[C@@H]5[C@@]6(C)CCC(=O)C(C)(C)[C@@H]6CC[C@@]5(C)[C@]3(C)CC4)nn2)CC1 [4c] | 11 ± 1.7% | 66 ± 9.9% | 76 ± 11.4% | 25 ± 3.8% | 34 ± 5.1% | 31 ± 4.7% | 2 ± 0.3% | 0 to 1% | 6 ± 9% | 50 ± 7.5% | 47 ± 7% | 46 ± 6.8% | > 62% | 50 ± 7.5% | 43 ± 6.5% | Gel formation [1]: produced a gel in glycerol; Inhibition of the microorganism (Enterococcus faecalis; E. faecalis, c = 25 µg·mL-1): 62 ± 9.3 ^e %
CC1(C)C=C2C3CC[C@@H]4[C@@]5(C)CC[C@H](OCc6cn(CCOCCOCCOCCNC(=O)[C@]78CCC(C)(C)C=C7C7CC[C@@H]9[C@@]%10(C)CC[C@H](OCc%11cn(CCOCCOCCOCCNC(=O)[C@]%12%13CCC(C)(C)C=C%12C%12CC[C@@H]%14[C@@]%15(C)CC[C@H](O)C(C)(C)[C@@H]%15CC[C@@]%14(C)[C@]%12(C)CC%13)nn%11)C(C)(C)[C@@H]%10CC[C@@]9(C)[C@]7(C)CC8)nn6)C(C)(C)[C@@H]5CC[C@@]4(C)[C@]3(C)CC[C@@]2(C(=O)O)CC1 (stereo partly shown) [12b] |  |  |  |  |  |  |  |  |  |  |  |  |  |  |  | Irregularity in UV-VIS spectra (self-assembly) [2]: No substantial irregularity was detected
CC1(C)CC[C@]2(C(=O)O)CC[C@]3(C)C(=CC[C@@H]4[C@@]5(C)CC[C@H](OCc6cn(CCOCCOCCOCCNC(=O)[C@]78CCC(C)(C)CC7C7=CC[C@@H]9[C@@]%10(C)CC[C@H](OCc%11cn(CCOCCOCCOCCNC(=O)[C@]%12%13CCC(C)(C)CC%12C%12=CC[C@@H]%14[C@@]%15(C)CC[C@H](O)C(C)(C)[C@@H]%15CC[C@@]%14(C)[C@]%12(C)CC%13)nn%11)C(C)(C)[C@@H]%10CC[C@@]9(C)[C@]7(C)CC8)nn6)C(C)(C)[C@@H]5CC[C@]43C)C2C1 (stereo partly shown) [12a] |  |  |  |  |  |  |  |  |  |  |  |  |  |  |  | Irregularity in UV-VIS spectra (self-assembly) [2]: Irregularities were detected
CC1(C)C=C2[C@H]3CC[C@@H]4[C@@]5(C)CCC(=O)C(C)(C)[C@@H]5CC[C@@]4(C)[C@]3(C)CC[C@@]2(C(=O)O)CC1 [1c, moronic acid, reference compound] | 0 to 1% | 3 ± 0.5% | 10 ± 1.5% | 0 to 1% | 0 to 1% | 0 to 1% | 0 to 1% | 15 ± 2.3% | 66 ± 9.9% | 0 to 1% | 0 to 1% | 0 to 1% | 0 to 1% | 0 to 1% | 0 to 1% | 
CN(C)[C@@H]1C(O)=C(C(N)=O)C(=O)[C@@]2(O)C(O)=C3C(=O)c4c(O)cccc4[C@@](C)(O)[C@H]3C[C@@H]12 [tetracycline, reference compound] |  |  |  |  |  |  | 99% |  |  |  |  |  |  |  |  | 
CC1(C)CC[C@]2(C(=O)O)CC[C@]3(C)C(=CC[C@@H]4[C@@]5(C)CC[C@H](O)C(C)(C)[C@@H]5CC[C@]43C)[C@@H]2C1 [1a, Oleanolic acid, reference compound] | 0 to 1% | 8 ± 1.2% | 33 ± 5% | 0 to 1% | 0 to 1% | 0 to 1% | > 77% | 77 ± 11.6% | 77 ± 11.6% | 0 to 1% | 0 to 1% | 0 to 1% | > 87% | 90 ± 13.5% | 89 ± 13.4% | Inhibition of the microorganism (Bacillus cereus; B. cereus, c = 25 µg·mL-1): 76 ± 11.4%; Inhibition of the microorganism (Enterococcus faecalis; E. faecalis, c = 25 µg·mL-1): 87 ± 13.0%
CC1(C)C=C2C3CC[C@@H]4[C@@]5(C)CC[C@H](OCc6cn(CCOCCOCCOCCNC(=O)[C@]78CCC(C)(C)C=C7C7CC[C@@H]9[C@@]%10(C)CC[C@H](O)C(C)(C)[C@@H]%10CC[C@@]9(C)[C@]7(C)CC8)nn6)C(C)(C)[C@@H]5CC[C@@]4(C)[C@]3(C)CC[C@@]2(C(=O)O)CC1 (stereo partly shown) [8b] | 0 to 1% | 24 ± 3.6% | 77 ± 11.6% | 17 ± 2.6% | 25 ± 3.8% | 31 ± 4.7% | 16 ± 2.4% | 38 ± 5.7% | 0 to 1% | 33 ± 5% | 59 ± 8.9% | 60 ± 9% | 20 ± 3% | 43 ± 6.5% | 54 ± 8.1% | 
CC1(C)C=C2[C@H]3CC[C@@H]4[C@@]5(C)CC[C@H](O)C(C)(C)[C@@H]5CC[C@@]4(C)[C@]3(C)CC[C@@]2(C(=O)O)CC1 [1b, morolic acid, reference compound] |  |  |  |  |  |  |  |  |  |  |  |  |  |  |  | inhibition at 25 µg/mL (Staphylococcus aureus): 21 ± 3.2%; inhibition at 50 µg/mL (Staphylococcus aureus): 17 ± 2.6%; inhibition at 100 µg/mL (Staphylococcus aureus): 47 ± 7%; inhibition at 25 µg/mL (Escherichia coli): 0 to 1%; inhibition at 50 µg/mL (Escherichia coli): 2 ± 0.3%; inhibition at 100 µg/mL (Escherichia coli): 0 to 1%; Inhibition of the microorganism (Bacillus cereus; B. cereus, c = 25 µg·mL-1): 78 ± 11.7%; inhibition at 25 µg/mL (Bacillus cereus; read-out: Inhibition of the microorganism, B. cereus, c = 25 µg·mL-1): > 77%; inhibition at 50 µg/mL (Bacillus cereus; read-out: Inhibition of the microorganism, B. cereus, c = 50 µg·mL-1): 76 ± 11.4%; inhibition at 100 µg/mL (Bacillus cereus; read-out: Inhibition of the microorganism, B. cereus, c = 100 µg·mL-1): 75 ± 11.3%; inhibition at 25 µg/mL (Pseudomonas aeruginosa; [9]): 0 to 1%; inhibition at 50 µg/mL (Pseudomonas aeruginosa; [9]): 0 to 1%; inhibition at 100 µg/mL (Pseudomonas aeruginosa; [9]): 0 to 1%; inhibition at 25 µg/mL (Enterococcus faecalis): 38 ± 5.7%; inhibition at 50 µg/mL (Enterococcus faecalis): 64 ± 9.6%; inhibition at 100 µg/mL (Enterococcus faecalis): 69 ± 10.4%
CN[C@H](CC(C)C)C(=O)N[C@H]1C(=O)N[C@@H](CC(N)=O)C(=O)N[C@H]2C(=O)N[C@H]3C(=O)N[C@H](C(=O)N[C@H](C(=O)O)c4cc(O)cc(O)c4-c4cc3ccc4O)[C@H](O)c3ccc(c(Cl)c3)Oc3cc2cc(c3O[C@@H]2O[C@H](CO)[C@@H](O)[C@H](O)[C@H]2O[C@H]2C[C@](C)(N)[C@H](O)[C@H](C)O2)Oc2ccc(cc2Cl)[C@H]1O [vancomycin, reference compound] |  |  |  |  |  |  |  |  |  |  |  |  |  |  |  | inhibition at 25 µg/mL (Staphylococcus aureus): 99%; inhibition at 25 µg/mL (Enterococcus faecalis): 99%
